From ChEMBL document CHEMBL6127136, “Discovery of 1-(Phenylsulfonyl)-1,2,3,4-tetrahydroquinoline Derivative as Orally Bioavailable and Safe RORγt Inverse Agonists for Potential Treatment of Rheumatoid Arthritis” (J Med Chem, 2024)
Activity calls are given as the source filed them. The calls are words filed in the database; no cut-off is given here.

Columns and labels:
Mus musculus [1] = assay: Antiarthritic activity in chicken type II collagen-induced arthritis DBA/1 mouse model assessed as reduction in hind paw swelling at 20 mg/kg/day, po administered for 2 weeks by H and E staining based analysis; assay type: functional, organism-based
[2] = Toxicity in chicken type II collagen-induced arthritis DBA/1 mouse model assessed as body weight loss at 20 mg/kg/day, po measured after 42 days; assay type: organism-based; details: in vivo, 1008 h, time 42 day
Mus musculus [3] = assay: (§1) Antiinflammatory activity against imiquimod-induced psoriasis-like skin inflammation in Balb/c mouse model assessed as decrease in IL-17F expression in skin at 10 mg/kg, IG preadministered with IMQ for 3 days followed by compound administration from day 4 and measured on day 14 by immunohistochemical analysis; assay type: functional, organism-based; details: time 11.0 day
[4] = Toxicity in chicken type II collagen-induced arthritis DBA/1 mouse model assessed as increase in thymic cortex to medulla ratio at 20 mg/kg/day, po administered for 2 weeks by H and E staining based analysis; assay type: organism-based; details: in vivo, 336 h
[5] = Oral bioavailability in male DBA/1 mouse at 20 mg/kg measured after 24 hrs by HPLC analysis; assay type: ADME, organism-based; details: in vivo
[6] = AUC (0 to t) in male DBA/1 mouse at 5 mg/kg, iv measured after 24 hrs by HPLC analysis; assay type: ADME, organism-based; details: in vivo
Mus musculus [7] = assay: as §1, with “dermal telangiectasia” for “IL-17F expression in skin”, “H and E staining based” for “immunohistochemical”; assay type: functional, organism-based; details: time 11.0 day
Mus musculus [8] = assay: (§2) Antiinflammatory activity against imiquimod-induced psoriasis-like skin inflammation in Balb/c mouse model assessed as attenuation of skin layer thickening at 10 mg/kg, IG preadministered with IMQ for 3 days followed by compound administration from day 4 and measured on day 14 by H and E staining based analysis; assay type: functional, organism-based; details: time 11.0 day
Mus musculus [9] = assay: Antiarthritic activity in chicken type II collagen-induced arthritis DBA/1 mouse model assessed as reduction in hind paw thickness at 20 mg/kg/day, po administered for 2 weeks by H and E staining based analysis; assay type: functional, organism-based
Mus musculus [10] = assay: Antiarthritic activity in chicken type II collagen-induced arthritis DBA/1 mouse model assessed as reduction in clinical score at 20 mg/kg/day, po measured after 42 days; assay type: functional, organism-based; details: time 42.0 day
[11] = AUC (0 to infinity) in male DBA/1 mouse at 20 mg/kg, po measured after 24 hrs by HPLC analysis; assay type: ADME, organism-based; details: in vivo
Mus musculus [12] = assay: Antiarthritic activity in chicken type II collagen-induced arthritis DBA/1 mouse model assessed as reduction in fore paw erythema at 20 mg/kg/day, po administered for 2 weeks by H and E staining based analysis; assay type: functional, organism-based
[13] = target: T1, Nuclear receptor ROR-gamma (Homo sapiens, UniProt P51449); assay: Inverse agonist activity at N-terminal 6-His-tagged/APC-labeled human RORgammat LBD extracted from Escherichia coli assessed as inhibition of europium-labeled SRC-1 recruitment incubated for 3 hrs by TR-FRET analysis
T1 sequence (P51449 whole entry): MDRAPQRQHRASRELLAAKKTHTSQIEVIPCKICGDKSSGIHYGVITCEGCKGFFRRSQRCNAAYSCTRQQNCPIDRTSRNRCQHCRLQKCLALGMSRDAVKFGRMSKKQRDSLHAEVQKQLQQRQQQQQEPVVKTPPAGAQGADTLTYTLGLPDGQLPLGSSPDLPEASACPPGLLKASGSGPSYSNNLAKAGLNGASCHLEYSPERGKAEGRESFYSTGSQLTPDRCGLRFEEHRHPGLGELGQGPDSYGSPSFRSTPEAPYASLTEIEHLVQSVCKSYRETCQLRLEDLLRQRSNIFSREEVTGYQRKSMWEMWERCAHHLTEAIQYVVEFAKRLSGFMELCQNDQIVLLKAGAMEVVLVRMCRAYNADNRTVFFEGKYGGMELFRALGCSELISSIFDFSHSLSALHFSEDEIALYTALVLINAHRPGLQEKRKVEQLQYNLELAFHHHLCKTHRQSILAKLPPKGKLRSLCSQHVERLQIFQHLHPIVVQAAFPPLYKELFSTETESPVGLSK

[14] = Cmax in male DBA/1 mouse at 20 mg/kg, po measured after 24 hrs by HPLC analysis; assay type: ADME, organism-based; details: in vivo
[15] = target: T1, Nuclear receptor ROR-gamma; assay: Inverse agonist activity at GAL4 DNA-binding domain fused RORgamma (unknown origin) transfected in HEK293T cells co-transfected with GAL4-promoter driven luciferase reporter gene assessed as inhibition of RORgammat transcription incubated for 18 to 20 hrs by plate reader analysis; assay type: cell-based
[16] = AUC (0 to t) in male DBA/1 mouse at 20 mg/kg, po measured after 24 hrs by HPLC analysis; assay type: ADME, organism-based; details: in vivo
Mus musculus [17] = assay: Antiarthritic activity in chicken type II collagen-induced arthritis DBA/1 mouse model assessed as reduction in fore paw thickness at 20 mg/kg/day, po administered for 2 weeks by H and E staining based analysis; assay type: functional, organism-based
Mus musculus [18] = assay: Antiarthritic activity in chicken type II collagen-induced arthritis DBA/1 mouse model assessed as reduction in fore paw swelling at 20 mg/kg/day, po administered for 2 weeks by H and E staining based analysis; assay type: functional, organism-based
[19] = Half-life in male DBA/1 mouse at 20 mg/kg, po measured after 24 hrs by HPLC analysis; assay type: ADME, organism-based; details: in vivo
Mus musculus [20] = assay: as §2, with “reduction in inflammatory cell infiltration in” for “attenuation of”, “skin” for “skin layer thickening”; assay type: functional, organism-based; details: time 11.0 day
[21] = Tmax in male DBA/1 mouse at 20 mg/kg, po measured after 24 hrs by HPLC analysis; assay type: ADME, organism-based; details: in vivo
Mus musculus [22] = assay: as §1, with “IL-23” for “IL-17F”; assay type: functional, organism-based; details: time 11.0 day
[23] = Cmax in male DBA/1 mouse at 5 mg/kg, iv measured after 24 hrs by HPLC analysis; assay type: ADME, organism-based; details: in vivo
[24] = Clearance in male DBA/1 mouse at 5 mg/kg, iv measured after 24 hrs by HPLC analysis; assay type: ADME, organism-based; details: in vivo
[25] = Half-life in male DBA/1 mouse at 5 mg/kg, iv measured after 24 hrs by HPLC analysis; assay type: ADME, organism-based; details: in vivo
[26] = Toxicity in chicken type II collagen-induced arthritis DBA/1 mouse model assessed as behavioral abnormalities at 20 mg/kg/day, po measured after 42 days; assay type: organism-based; details: in vivo, 1008 h, time 42 day
Mus musculus [27] = assay: as §1, with “IL-17A” for “IL-17F”; assay type: functional, organism-based; details: time 11.0 day
[28] = Toxicity in chicken type II collagen-induced arthritis DBA/1 mouse model assessed as signs of thymic enlargement at 20 mg/kg/day, po administered for 2 weeks by H and E staining based analysis; assay type: organism-based; details: in vivo, 336 h
[29] = AUC (0 to infinity) in male DBA/1 mouse at 5 mg/kg, iv measured after 24 hrs by HPLC analysis; assay type: ADME, organism-based; details: in vivo
Mus musculus [30] = assay: as §2, with “reduction in mononuclear cell infiltration in” for “attenuation of”, “skin” for “skin layer thickening”; assay type: functional, organism-based; details: time 11.0 day
[31] = Toxicity in chicken type II collagen-induced arthritis DBA/1 mouse model assessed as morphological changes in thymocytes at 20 mg/kg/day, po administered for 2 weeks by H and E staining based analysis; assay type: organism-based; details: in vivo, 336 h
[32] = Toxicity in imiquimod-induced psoriasis-like skin inflammation Balb/c mouse model assessed as change in body weight at 10 mg/kg, IG preadministered with IMQ for 3 days followed by compound administration from day 4 and measured on day 14; assay type: organism-based; details: in vivo, po, 264 h, time 11 day
Mus musculus [33] = assay: Antiarthritic activity in chicken type II collagen-induced arthritis DBA/1 mouse model assessed as improvement in arthritic symptoms at 20 mg/kg/day, po administered for 2 weeks by H and E staining based analysis; assay type: functional, organism-based
[34] = Tmax in male DBA/1 mouse at 5 mg/kg, iv measured after 24 hrs by HPLC analysis; assay type: ADME, organism-based; details: in vivo
[35] = Toxicity in chicken type II collagen-induced arthritis DBA/1 mouse model assessed as signs of lymphoma at 20 mg/kg/day, po administered for 2 weeks by H and E staining based analysis; assay type: organism-based; details: in vivo, 336 h
Mus musculus [36] = assay: Antiarthritic activity in chicken type II collagen-induced arthritis DBA/1 mouse model assessed as reduction in hind paw erythema at 20 mg/kg/day, po administered for 2 weeks by H and E staining based analysis; assay type: functional, organism-based

Compound: CCc1ccc(N(CC(C)C)S(=O)(=O)c2ccc(OCC3CCOCC3)c(CO)c2)cc1 [GSK2981278]
- Activity (Mus musculus [1]): Active
- Activity [2]: Non-Toxic
- Activity (Mus musculus [3]): Active
- Activity [4]: Toxic
- bioavailability [5]: 6.2%
- AUC(0-t) at 24 h [6]: 1270 ng·h/mL
- Activity (Mus musculus [7]): Active
- Activity (Mus musculus [8]): Active
- Activity (Mus musculus [9]): Active
- Activity (Mus musculus [10]): Active
- AUC(0-inf) [11]: 326 ng·h/mL
- Activity (Mus musculus [12]): Active
- IC50 [13]: 2.5 nM
- Cmax [14]: 99.3 ng/mL
- IC50 [15]: 13.6 nM
- AUC(0-t) at 24 h [16]: 299 ng·h/mL
- Activity (Mus musculus [17]): Active
- Activity (Mus musculus [18]): Active
- half-life [19]: 4.99 h
- Activity (Mus musculus [20]): Active
- Tmax [21]: 0.417 h
- Activity (Mus musculus [22]): Active
- Cmax [23]: 1280 ng/mL
- clearance [24]: 64.2 mL/min/kg
- half-life [25]: 3.81 h
- Activity [26]: Non-Toxic
- Activity (Mus musculus [27]): Active
- Activity [28]: Non-Toxic
- AUC(0-inf) [29]: 1310 ng·h/mL
- Activity (Mus musculus [30]): Active
- Activity [31]: Non-Toxic
- Activity [32]: Non-Toxic
- Activity (Mus musculus [33]): Active
- Tmax [34]: 4.98 min
- Activity [35]: Non-Toxic
- Activity (Mus musculus [36]): Active
